Results on 1 compound are retold here after article PMC2914301 (Cancer research, 2009).

Entries after “also recorded” stand apart in the source; their conditions may differ.

In data set [1] the target is T1, PH domain of PDK1 (Homo sapiens, UniProt O15530).
T1 sequence (O15530 459-550 limits assumed): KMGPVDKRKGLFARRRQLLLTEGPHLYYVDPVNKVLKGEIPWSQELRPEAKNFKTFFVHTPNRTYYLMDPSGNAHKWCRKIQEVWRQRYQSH
The data set can be described thus: SPR competitive binding.

For data set [2], the system named is BxPC-3 pancreatic cancer xenografts. The data set can be described thus: Antitumor activity against BxPC-3 xenografts in scid mice. Format: in vivo. The settings on record: 125 mg/kg i.p. twice a day for 5 days.
The next data set deals with Panc-1. The data set can be described thus: Morphologic apoptosis assay in Panc-1 cells. In kind it is cell-based, Human.
A further data set relates to GSK3β and p70S6K. The data set can be described thus: Western analysis of AKT downstream targets in BxPC-3 cells. The settings on record: Western blot. Format: cell-based, Human. Background: In western blotting, separated proteins are transferred to a membrane and probed.
Another data set relates to phospho-Ser^241-PDK1. The data set can be described thus: Western analysis of phospho-Ser241-PDK1 in BxPC-3 cells. Format: cell-based, Human. The settings on record: at higher concentrations.
The test system of the next data set is MiaPaCa-2. The data set can be described thus: Morphologic apoptosis assay in MiaPaCa-2 cells. In kind it is cell-based, Human.
In data set [3] the target is T1, PH domain of PDK1. The data set can be described thus: SPR direct binding to PDK1 PH domain.
Data set [4] in a line: Preliminary single-dose toxicity, i.p. The settings on record: single doses up to 250 mg/kg i.p.; preliminary studies. Format: in vivo.

Usually Ki stands for the dissociation constant of the complex between target and ligand, obtained from inhibition or displacement. Usually Kd stands for a measure of binding affinity in units of concentration. A high value points to weaker binding. `CCCCCCCCCCCCc1ccc(S(=O)(=O)Nc2nncs2)cc1` [Compound 27, 4-dodecyl-N-(1,3,4-thiadiazol-2-yl) benzenesulfonamide] yielded a Ki on PH domain of PDK1 [1] of 5.5 µM. Moreover, the Antitumor activity entry in data set [2] was “significant antitumor activity with cessation of tumor growth and even regression; also recorded: complete cessation of tumor growth and even some regression”. Also, the entries for the “Apoptosis at 20 μmol/L” value with Panc-1 and in the data set on MiaPaCa-2 were 40.0 ± 2.9% and 31.3 ± 1.6%, respectively. Further, the “Effect on GSK3β and p70S6K phosphorylation (in words)” value with GSK3β and p70S6K was “inhibited in a dose-dependent manner”. In the data set on phospho-Ser^241-PDK1, the “Effect on phosphorylation of PDK1 on Ser241 (in words)” value is “slightly affected”. Further, the dissociation constant (Kd) at PH domain of PDK1 [3] worked out at 90.1 µM. Further, the “Toxicity of single doses” value in data set [4] was “no toxicity”.
